As usually defined, the EC50 is the concentration needed to bring the measured effect to its halfway point.

The text below walks through data of patent US7875744B2, “4-((phenoxyalkyl)thio)-phenoxyacetic acids and analogs” (Janssen Pharmaceutica NV, priority 2004, dated 2011).

Common to all, as to assay type: cell-based
Settings in all cases: HEK293 cells co-transfected with PPAR LBD-GAL4 and UAS-luciferase; 18-24 hrs treatment

One assay has as its target T1, PPAR delta (Homo sapiens, UniProt Q03181).
T1 construct: expressed in transfected cells; host or cells: HEK293
T1 sequence (Q03181 211-439 limits assumed): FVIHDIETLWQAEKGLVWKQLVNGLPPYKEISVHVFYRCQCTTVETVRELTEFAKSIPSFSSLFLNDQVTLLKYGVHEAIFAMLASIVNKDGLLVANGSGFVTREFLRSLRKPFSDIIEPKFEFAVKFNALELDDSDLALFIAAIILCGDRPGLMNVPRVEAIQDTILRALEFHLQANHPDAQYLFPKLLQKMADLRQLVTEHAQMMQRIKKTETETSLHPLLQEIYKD
As to the kind of experiment: Transfection assay for PPAR receptors (GAL4-LBD luciferase reporter in HEK293 cells), PPAR delta. As for the experimental part:
(§1) Transfection Assay Method for PPAR Receptors
(§2) HEK293 cells were grown in DMEM/F12 medium supplemented with 10% FBS and glutamine (Invitrogen) and incubated in a 5% CO2 incubator at 37° C. The cells were co-transfected using DMRIE-C reagent (Invitrogen) in serum free medium (Opti-MEM, Invitrogen) with two mammalian expression plasmids, one containing the DNA sequence coding for the ligand binding domains of either PPARα, γ or 6 fused to the yeast GAL4 DNA binding domain and the other containing the promoter sequence of the yeast GAL4 (UAS) fused to the firefly luciferase cDNA reporter. The next day, the medium was changed to DMEM/F12 medium supplemented with 5% charcoal treated serum (Hyclone) and glutamine. After 6 hrs the cells were trypsinized and seeded at a density of 50,000 cells/well into 96 well plates and incubated overnight as above. The cells were then treated with test compounds or vehicle and incubated for 18-24 hrs as above. Luciferase reporter activity was measured using the Steady-Glo Luciferase Assay Kit from Promega. DMRIE-C Reagent was purchased from GIBCO Cat. No. 10459-014. OPTI-MEM I Reduced Serum Medium was purchased from GIBCO (Cat. No. 31985). Steady-Glo Luciferase Assay Kit was purchased from Promega (Part# E254B).
(§3) A variety of example compounds have been made and tested, with a range of in vitro results. […]
For orientation: Reporter assays use an easily measured gene product as a stand-in for the process of interest.

The next assay has as its target T2, PPAR gamma (Homo sapiens, UniProt P37231).
T2 construct: expressed in transfected cells; host or cells: HEK293
T2 sequence (P37231 238-503 limits assumed): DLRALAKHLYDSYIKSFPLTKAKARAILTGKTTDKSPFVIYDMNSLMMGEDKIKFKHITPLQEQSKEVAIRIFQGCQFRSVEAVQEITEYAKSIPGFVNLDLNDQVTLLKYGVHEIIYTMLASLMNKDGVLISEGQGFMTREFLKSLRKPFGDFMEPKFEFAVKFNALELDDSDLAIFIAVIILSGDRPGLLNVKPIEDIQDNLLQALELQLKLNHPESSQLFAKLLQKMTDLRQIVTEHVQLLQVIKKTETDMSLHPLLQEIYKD
As to the kind of experiment: Transfection assay for PPAR receptors (GAL4-LBD luciferase reporter in HEK293 cells), PPAR gamma. On the procedure:
as §1, §2, §3

Another assay deals with T3, PPAR alpha (Homo sapiens, UniProt Q07869).
T3 construct: expressed in transfected cells; host or cells: HEK293
T3 sequence (Q07869 239-466 limits assumed): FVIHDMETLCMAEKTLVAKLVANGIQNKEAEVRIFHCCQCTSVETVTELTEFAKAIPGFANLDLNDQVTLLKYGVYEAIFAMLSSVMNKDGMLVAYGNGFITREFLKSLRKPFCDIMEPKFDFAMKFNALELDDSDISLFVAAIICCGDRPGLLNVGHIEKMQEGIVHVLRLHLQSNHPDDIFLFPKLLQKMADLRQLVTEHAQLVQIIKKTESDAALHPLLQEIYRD
As to the kind of experiment: Transfection assay for PPAR receptors (GAL4-LBD luciferase reporter in HEK293 cells), PPAR alpha. As for the experimental part:
as §1, §2, §3

In the case of `C=C(COc1ccc(OC(F)(F)F)cc1)CSc1ccc(OC(C)(C)C(=O)O)c(C)c1` [Compound 2], the EC50 at PPAR delta was found to be 0.0415 µM; at PPAR gamma, 0.899 µM; at PPAR alpha, 0.9 µM.
